Test results published in patent US10669227B2 (THE RESEARCH FOUNDATION OF STATE UNIVERSITY OF NEW YORK, priority 2009, dated 2020).

Assays:
[1] = Solubility in aqueous solutions; assay type: physicochemical; details: comparative
[2] = target: MMP-9 (human leukocyte gelatinase) (Homo sapiens (Human), UniProt P14780); experiment: MMP-9 inhibition in vitro, octapeptide substrate, HPLC; assay type: biochemical; details: read-out: Maximum Inhibition At 100 μM compound (MMP-9)
Source text: In contrast all three chemically-modified curcumins at 100 μm final concentration inhibited gelatinase activity by 68-100% (FIG. 6 and Table 6).

MMP-2 = MMP-2 (Homo sapiens (Human), UniProt P08253); experiment: MMP-2 inhibition in vitro, octapeptide substrate, HPLC; assay type: biochemical; details: for inhibition at 100 µM: read-out: MMP-2 Maximum Inhibition @100 μM; for MMP-2 Ratio (IC50 test compound/IC50 standard): standard 1,10-phenanthroline
Sequence of MMP-2 (P08253 110-660, species assumed): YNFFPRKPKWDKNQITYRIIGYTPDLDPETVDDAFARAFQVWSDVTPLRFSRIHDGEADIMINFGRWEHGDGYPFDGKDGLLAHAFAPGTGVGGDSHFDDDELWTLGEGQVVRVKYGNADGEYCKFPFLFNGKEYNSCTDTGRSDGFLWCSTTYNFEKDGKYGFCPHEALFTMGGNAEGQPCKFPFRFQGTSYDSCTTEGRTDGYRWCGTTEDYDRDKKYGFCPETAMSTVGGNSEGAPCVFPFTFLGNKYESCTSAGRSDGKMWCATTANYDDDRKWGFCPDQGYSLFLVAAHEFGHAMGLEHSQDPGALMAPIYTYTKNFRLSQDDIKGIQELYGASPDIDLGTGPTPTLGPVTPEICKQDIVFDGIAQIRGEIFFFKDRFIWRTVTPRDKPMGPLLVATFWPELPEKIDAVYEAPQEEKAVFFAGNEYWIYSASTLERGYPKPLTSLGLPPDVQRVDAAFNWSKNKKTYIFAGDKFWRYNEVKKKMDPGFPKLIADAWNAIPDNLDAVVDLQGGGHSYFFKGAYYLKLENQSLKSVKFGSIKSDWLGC

MMP-13 (Collagenase-3) = MMP-13 (Collagenase-3) (Homo sapiens (Human), UniProt P45452); experiment: MMP-13 inhibition in vitro, octapeptide substrate, HPLC; assay type: biochemical; details: for inhibition at 100 µM: read-out: MMP-13 Maximum Inhibition @100 μM; for MMP-13 Ratio (IC50 test compound/IC50 standard): standard 1,10-phenanthroline
TNF-α = experiment: Inhibition of TNF-α production by LPS-stimulated monocytes; assay type: cell-based, human; details: Homo sapiens, Monocyte, 18 h, read-out: % Inhibition of TNF-α produced by stimulated Monocytes with LPS @ 18 h
Procedure: (§1) Briefly, human peripheral blood monocytes (HMs) were isolated from a leukocyte concentrate by density gradient centrifugation (Lymphoprep) and the isolated HMs cultured (2 h, 37° C.) to remove non-adherent cells. The adherent HMs wore cultured for 18 h (1×10^6 cells/well, 24-well plates)±endotoxin (LPS)±different compounds dissolved in DMSO (the final concentration of DMSO in the RPMI serum-free culture media with Pen./Strep. antibiotics was no greater than 0.5%). After incubation, the proinflammatory cytokines, TNFα, […], MCP-1 and IL-6 were measured in the conditioned media by ELISA and cytotoxicity was assessed by measuring the absorbance (490 nm) of formazan produced by reduction of MTS. The HMs alone±0.1-0.5% DMSO produced minimal levels of these pro-inflammatory cytokines. However, addition of 100 ng/ml or 10 μg/ml of LPS both dramatically stimulated cytokine production.
The cytokine levels were measured by Luminex multiplex, a method that allows the simultaneous measurement of different biological markers.

human monocytes = experiment: Cytotoxicity in human monocytes (MTS); assay type: cell-based
Procedure: as §1, with “The adherent HMs wore cultured for 18 h (1×10^6 cells/well, 24-well plates)±endotoxin (LPS)±different compounds dissolved in DMSO (the final concentration of DMSO in the RPMI serum-free culture media with Pen./Strep. antibiotics was no greater than 0.5%).” left out

Sequence of MMP-9 (human leukocyte gelatinase) (P14780 94-707): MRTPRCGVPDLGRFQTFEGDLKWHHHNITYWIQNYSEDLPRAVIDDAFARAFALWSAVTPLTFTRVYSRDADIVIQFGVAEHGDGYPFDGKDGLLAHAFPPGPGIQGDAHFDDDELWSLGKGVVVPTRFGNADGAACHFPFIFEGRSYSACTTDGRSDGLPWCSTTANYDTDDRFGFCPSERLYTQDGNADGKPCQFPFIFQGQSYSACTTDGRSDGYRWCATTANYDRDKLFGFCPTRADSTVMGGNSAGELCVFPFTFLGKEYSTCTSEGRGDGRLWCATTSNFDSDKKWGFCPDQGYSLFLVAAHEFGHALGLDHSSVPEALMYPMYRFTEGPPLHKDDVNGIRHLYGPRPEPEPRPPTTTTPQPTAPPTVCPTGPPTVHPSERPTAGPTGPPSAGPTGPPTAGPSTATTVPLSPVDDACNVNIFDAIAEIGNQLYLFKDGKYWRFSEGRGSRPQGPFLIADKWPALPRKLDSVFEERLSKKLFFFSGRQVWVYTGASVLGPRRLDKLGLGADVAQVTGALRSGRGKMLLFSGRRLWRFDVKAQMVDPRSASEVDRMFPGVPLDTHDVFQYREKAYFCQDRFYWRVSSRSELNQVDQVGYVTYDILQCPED

SMILES	Solubility [1]	inhibition at 100 µM [2]	inhibition at 100 µM (MMP-2)	MMP-2 Ratio (IC50 test compound/IC50 standard) (MMP-2)	inhibition at 100 µM (MMP-13 (Collagenase-3))	MMP-13 Ratio (IC50 test compound/IC50 standard) (MMP-13 (Collagenase-3))	other results
COC(=O)C(C(=O)/C=C/c1ccccc1)C(=O)/C=C/c1ccccc1 [Compound 2]	improved solubility	–	–	–	–	–	–
COc1cc(/C=C/C(=O)CC(=O)/C=C/c2ccc(N(C)C)cc2)ccc1O [Compound 4]	–	100%	36%	>3.6	50%	62.5	–
COc1cc(/C=C/C(=O)CC(=O)/C=C/c2ccc(O)c(OC)c2)ccc1O [Curcumin, curcumin]	insoluble	58%	54%	–	–	–	inhibition at 10 µM (TNF-α; 10 uM): 0%; inhibition at 20 µM (TNF-α; 20 uM): 0%; inhibition at 50 µM (TNF-α; 50 uM): 80%; Cytotoxicity Monocytes @ 5 h incubation (human monocytes; 10 uM): 10 uM - 0%; Cytotoxicity Monocytes @ 18 h incubation (human monocytes; 10 uM): 10 uM - 0%; Cytotoxicity Monocytes @ 5 h incubation (human monocytes; 20 uM): 20 uM - 20%; Cytotoxicity Monocytes @ 18 h incubation (human monocytes; 20 uM): 20 uM - 20%; Cytotoxicity Monocytes @ 5 h incubation (human monocytes; 50 uM): 50 uM - 50%; Cytotoxicity Monocytes @ 18 h incubation (human monocytes; 50 uM): 50 uM - 77%; Cytotoxicity in monocyte culture (human monocytes; 50 and 100 μM, with some precipitation): significant cytotoxicity
COc1cc(/C=C/C(=O)C(C(=O)/C=C/c2ccc(O)c(OC)c2)C(=O)Nc2ccccc2)ccc1O [Compound 6, 1,7-Bis(4-hydroxy-3-methoxyphenyl)-4-N-phenylaminocarbonylhepta-1E,6E-dien-3,5-dione]	–	–	53%	–	100%	–	–
c1cnc2c(c1)ccc1cccnc12 [1,10-phenanthroline, 1,10-O-phenanthroline, reference compound]	–	100%	60%	1.0	100%	1.0	–
O=C(/C=C/c1ccc(O)cc1)C(C(=O)/C=C/c1ccc(O)cc1)C(=O)Nc1ccccc1 [Compound 7, 1,7-Bis(4-hydroxyphenyl)-4-N-phenylaminocarbonylhepta-1E,6E-dien-3,5-dione]	–	–	45%	1.8	77%	<0.3	–
CN(C)c1ccc(/C=C/C(=O)C(C(=O)/C=C/c2ccc(N(C)C)cc2)C(=O)Nc2ccccc2)cc1 [Compound 8, 1,7-Bis(4-dimethylaminophenyl)-4-N-phenylaminocarbonylhepta-1E,6E-dien-3,5-dione]	–	–	–	–	53%	11.3	–
COC(=O)C(C(=O)/C=C/c1ccc(O)cc1)C(=O)/C=C/c1ccc(O)cc1 [Compound 3, 1,7-Bis(4-hydroxyphenyl)-4-methoxycarbonylhepta-1E,6E-dien-3,5-dione]	more soluble in aqueous solutions than compound 1	68%	60%	1.0	76%	2.0	–
